From patent US20250011311A1, “AMIDO HETEROAROMATIC COMPOUNDS” (AstraZeneca AB, priority 2022, published 2025)

Assays:
[1] = target: recombinant 17bHSD13 (N2-K300) (Homo sapiens (Human), UniProt Q7Z5P4); assay: In Vitro 17bHSD13 Enzyme Assay; type: biochemical; details: 80 nM 17bHSD13, 0.5 mM NAD, 20 μM Estradiol, 2.5 h; estradiol to estrone by LC-MS/MS
Procedure, shortened: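 Human 17bHSD13 (N2-K300, 80 nM) with 0.5 mM NAD, 20 μM estradiol and varied compound in 50 mM Tris-Cl pH 7.4, 5 mM EDTA, 0.01% DDM. Estrone/(estrone+estradiol) ratio read by LC-MS/MS (APCI, positive MRM). Inhibition normalised to DMSO and a known-inhibitor control; IC50 from curve fit.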

[2] = target: over expressed HSD17β13 in HEK293S cells (Homo sapiens (Human), UniProt Q7Z5P4); assay: In Vitro 17bHSD13 Cell Assay; type: cell-based; details: HEK293S cells over expressing HSD17β13; estradiol to estrone conversion, 18 h, LC-MS/MS; read-out: 17bHSD1713 Cell assay IC50
Procedure, shortened: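 HEK293S cells overexpressing HSD17β13 convert estradiol to estrone; product read by LC-MS/MS (APCI, positive MRM) as AUC ratio estrone/(estrone+estradiol). Effect normalised between DMSO and maximal inhibition by a known inhibitor control; IC50 from curve fit.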

Chain of recombinant 17bHSD13 (N2-K300) (Q7Z5P4 2-300): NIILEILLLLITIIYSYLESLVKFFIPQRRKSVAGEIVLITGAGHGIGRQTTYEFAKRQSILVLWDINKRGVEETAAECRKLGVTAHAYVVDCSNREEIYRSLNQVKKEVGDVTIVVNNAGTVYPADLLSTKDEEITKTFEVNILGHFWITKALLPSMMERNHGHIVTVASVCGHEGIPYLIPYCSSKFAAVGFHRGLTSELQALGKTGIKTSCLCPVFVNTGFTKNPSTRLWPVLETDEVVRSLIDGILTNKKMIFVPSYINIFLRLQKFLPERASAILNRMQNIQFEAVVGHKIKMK
Chain of over expressed HSD17β13 in HEK293S cells (Q7Z5P4 20-300): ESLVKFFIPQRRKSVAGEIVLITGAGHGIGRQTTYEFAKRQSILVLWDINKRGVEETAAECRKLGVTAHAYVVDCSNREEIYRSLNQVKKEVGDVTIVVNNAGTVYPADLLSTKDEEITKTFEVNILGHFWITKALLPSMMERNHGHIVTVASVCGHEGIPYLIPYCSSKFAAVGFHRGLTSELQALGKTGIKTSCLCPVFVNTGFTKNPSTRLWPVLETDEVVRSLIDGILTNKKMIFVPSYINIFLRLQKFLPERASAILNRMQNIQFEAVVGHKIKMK

Work on `COc1cccc(N2CCN(C(=O)c3noc(-c4cc(F)c(F)c(O)c4F)c3C#N)CC2)c1` [Example 16, 3-(4-(3-Methoxyphenyl)piperazine-1-carbonyl)-5-(2,4,5-trifluoro-3-hydroxyphenyl)isoxazole-4-carbonitrile] yielded an IC50 [1] of 137 nM and an IC50 [2] of 4560 nM.

`O=C(c1noc(-c2cc(F)c(F)c(O)c2F)n1)N1CC(c2ccc(F)cc2)C1` [Example 74, (3-(4-Fluorophenyl)azetidin-1-yl)(5-(2,4,5-trifluoro-3-hydroxyphenyl)-1,2,4-oxadiazol-3-yl)methanone] showed an IC50 [1] of 89 nM and an IC50 [2] of 3000 nM.

`O=C(c1noc(-c2cc(C(F)(F)F)[nH]c(=O)c2)n1)N1CCC(c2ccccc2)C1` (stereo not shown) [Example 9, 4-(3-(3-Phenylpyrrolidine-1-carbonyl)-1,2,4-oxadiazol-5-yl)-6-(trifluoromethyl)pyridin-2(1H)-one] showed an IC50 [1] of 422 nM and an IC50 [2] of 5550 nM.

For `O=C(c1noc(-c2cc(F)c(F)c(O)c2F)n1)N1CCOC2(CC2)C1` [Example 118, (4-Oxa-7-azaspiro[2.5]octan-7-yl)(5-(2,4,5-trifluoro-3-hydroxyphenyl)-1,2,4-oxadiazol-3-yl)methanone], the IC50 [1] was 1080 nM and the IC50 [2] was 220 nM.

With `CC(C)CC1CN(C(=O)c2noc(-c3cc(F)c(F)c(O)c3F)n2)CCO1` (stereo not shown) [Example 47, (2-Isobutylmorpholino)(5-(2,4,5-trifluoro-3-hydroxyphenyl)-1,2,4-oxadiazol-3-yl)methanone] the IC50 [1] was 183 nM and the IC50 [2] was 230 nM.

`Cn1nnc(-c2cnc(N3CCN(C(=O)c4noc(-c5cc(F)c(F)c(O)c5F)n4)CC3)c(Cl)c2)n1` [Example 67, (4-(3-Chloro-5-(2-methyl-2H-tetrazol-5-yl)pyridin-2-yl)piperazin-1-yl)(5-(2,4,5-trifluoro-3-hydroxyphenyl)-1,2,4-oxadiazol-3-yl)methanone] gave an IC50 [1] of 79 nM and an IC50 [2] of 530 nM.

`C[C@@H]1CN(C(=O)c2noc(-c3cc(F)c(F)c(O)c3F)n2)C[C@H](C)N1` [Example 119, ((3R,5S)-3,5-Dimethylpiperazin-1-yl)(5-(2,4,5-trifluoro-3-hydroxyphenyl)-1,2,4-oxadiazol-3-yl)methanone] showed an IC50 [1] of 1740 nM and an IC50 [2] of 2750 nM.

Compound `O=C(c1noc(-c2cc(F)c(F)c(O)c2F)n1)N1CCO[C@H]2CCC[C@H]21` [Example 112, ((4aR,7aS)-Hexahydrocyclopenta[b][1,4]oxazin-4(4aH)-yl)(5-(2,4,5-trifluoro-3-hydroxyphenyl)-1,2,4-oxadiazol-3-yl)methanone] has an IC50 [1] of 197 nM and an IC50 [2] of 390 nM.

`O=C(c1noc(-c2cc(F)c(F)c(O)c2F)n1)N1CC[C@H](Oc2ccccc2)C1` [Example 93, (S)-(3-Phenoxypyrrolidin-1-yl)(5-(2,4,5-trifluoro-3-hydroxyphenyl)-1,2,4-oxadiazol-3-yl)methanone] was tested, and the IC50 [1] was 63 nM and the IC50 [2] was 700 nM.

`O=C(c1ccc(-c2cc(F)c(F)c(O)c2F)s1)N1CC[C@H](c2ccccc2)C1` [Example 33, (R)-(3-Phenylpyrrolidin-1-yl)(5-(2,4,5-trifluoro-3-hydroxyphenyl)thiophen-2-yl)methanone] was tested, and the IC50 [1] was 34 nM and the IC50 [2] was 1210 nM.

For `O=C(c1noc(-c2cc(F)c(F)c(O)c2F)n1)N1CCN(CCOc2ccc(Br)cn2)CC1` [Example 69, (4-(2-((5-Bromopyridin-2-yl)oxy)ethyl)piperazin-1-yl)(5-(2,4,5-trifluoro-3-hydroxyphenyl)-1,2,4-oxadiazol-3-yl)methanone], the IC50 [1] was 131 nM and the IC50 [2] was 110 nM.

In the case of `O=C(c1noc(-c2cc(F)c(F)c(O)c2F)n1)N1CCCC(OCc2ccccc2)C1` (stereo not shown) [Example 94, (3-(Benzyloxy)piperidin-1-yl)(5-(2,4,5-trifluoro-3-hydroxyphenyl)-1,2,4-oxadiazol-3-yl)methanone], the IC50 [1] is reported as 48 nM and the IC50 [2] is reported as 1420 nM.

`CCCC1CCN(C(=O)c2noc(-c3cc(F)c(F)c(O)c3F)n2)C1` (stereo not shown) [Example 76, (3-Propylpyrrolidin-1-yl)(5-(2,4,5-trifluoro-3-hydroxyphenyl)-1,2,4-oxadiazol-3-yl)methanone] gave an IC50 [1] of 128 nM and an IC50 [2] of 140 nM.

`N#Cc1c(C(=O)N2Cc3ccc(F)cc3C2)noc1-c1cc(F)c(F)c(O)c1F` [Example 18, 3-(5-Fluoroisoindoline-2-carbonyl)-5-(2,4,5-trifluoro-3-hydroxyphenyl)isoxazole-4-carbonitrile] was tested, and the IC50 [1] was 80 nM and the IC50 [2] was 790 nM.

`O=C(c1noc(-c2cc(F)c(F)c(O)c2F)n1)N1CC[C@H](c2ccc(Cl)cc2)C1` [Example 95, (R)-(3-(4-Chlorophenyl)pyrrolidin-1-yl)(5-(2,4,5-trifluoro-3-hydroxyphenyl)-1,2,4-oxadiazol-3-yl)methanone] showed an IC50 [1] of 53 nM and an IC50 [2] of 210 nM.

In the case of `O=C(c1noc(-c2cc(F)c(F)c(O)c2F)n1)N1CC2CCC(C1)C2(F)F` [Example 43, (8,8-difluoro-3-azabicyclo[3.2.1]octan-3-yl)(5-(2,4,5-trifluoro-3-hydroxyphenyl)-1,2,4-oxadiazol-3-yl)methanone], the IC50 [1] is reported as 339 nM and the IC50 [2] is reported as 240 nM.

`C[C@@H]1CN(C(=O)c2noc(-c3cc(F)c(F)c(O)c3F)n2)[C@H](C)CO1` [Example 50, ((2R,5R)-2,5-Dimethylmorpholino)(5-(2,4,5-trifluoro-3-hydroxyphenyl)-1,2,4-oxadiazol-3-yl)methanone] showed an IC50 [1] of 499 nM and an IC50 [2] of 220 nM.

Work on `O=C(c1noc(-c2cc(F)c(F)c(O)c2F)n1)N1CCOC2CCCC21` (stereo not shown) [Example 41, (Hexahydrocyclopenta[b][1,4]oxazin-4(4aH)-yl)(5-(2,4,5-trifluoro-3-hydroxyphenyl)-1,2,4-oxadiazol-3-yl)methanone] yielded an IC50 [1] of 82 nM and an IC50 [2] of 90 nM.

Work on `N#Cc1c(C(=O)N2CCN(CCCOc3ccc(F)cc3)CC2)noc1-c1cc(F)c(F)c(O)c1F` [Example 14, 3-(4-(3-(4-Fluorophenoxy)propyl)piperazine-1-carbonyl)-5-(2,4,5-trifluoro-3-hydroxyphenyl)isoxazole-4-carbonitrile] yielded an IC50 [1] of 126 nM and an IC50 [2] of 260 nM.

`N#Cc1ccc2c(c1)CN(C(=O)c1noc(-c3cc(F)c(F)c(O)c3F)c1C#N)CC2` [Example 29, 3-(7-Cyano-1,2,3,4-tetrahydroisoquinoline-2-carbonyl)-5-(2,4,5-trifluoro-3-hydroxyphenyl)isoxazole-4-carbonitrile] showed an IC50 [1] of 157 nM and an IC50 [2] of 440 nM.

Compound `O=C(Nc1ccnn1C1CCCCC1)c1cc(-c2ccc(F)c(O)c2)on1` [Example 99, N-(1-Cyclohexyl-1H-pyrazol-5-yl)-5-(4-fluoro-3-hydroxyphenyl)isoxazole-3-carboxamide] has an IC50 [1] of 114 nM and an IC50 [2] of 15800 nM.

`CC1(C)CN(C(=O)c2noc(-c3cc(F)c(F)c(O)c3F)n2)CC(C)(C)O1` [Example 32, (2,2,6,6-Tetramethylmorpholino)(5-(2,4,5-trifluoro-3-hydroxyphenyl)-1,2,4-oxadiazol-3-yl)methanone] was tested, and the IC50 [1] was 159 nM and the IC50 [2] was 300 nM.

In the case of `N#Cc1cccc2c1CCN(C(=O)c1noc(-c3c(F)c(O)c(F)c(F)c3Br)n1)C2` [Example 30, 2-(5-(2-Bromo-3,4,6-trifluoro-5-hydroxyphenyl)-1,2,4-oxadiazole-3-carbonyl)-1,2,3,4-tetrahydroisoquinoline-5-carbonitrile], the IC50 [1] is reported as 61 nM and the IC50 [2] is reported as 2520 nM.
